From PubChem BioAssay AID844 (SRMLSC, 2007)
Calls of active or inactive are those of the source. The rule behind the calls is not given here.

Tested on: MRP1 cells, doxorubicin viability shift, 10 uM compound
Assay: doxorubicin EC50 increase in MRP-1 cells, dose response, cell-based, doxorubicin EC50 shift (AID 844)
Conditions: for EC50: measured here: doxorubicin EC50 with compound

| SMILES | fold increase in Dox EC50 | EC50 |
| --- | --- | --- |
| CCOC(=O)c1ccc(N2C(=O)c3n[nH]c(C)c3C2c2ccc(OC)cc2OC)cc1 (configuration not stated) | 0.28 (inactive) | 1.51 µM |
| N#Cc1nc(COc2ccc(Br)cc2)oc1N1CCCC1 | 1.26 (inactive) | 6.8 µM |
| O=c1c(-c2nnc(SCc3ccc(Cl)cc3)o2)cccn1Cc1ccccc1 | 0.63 (inactive) | 3.4 µM |
| CCCCOC(=O)Nc1ccc(C(C)C)cc1 | 0.78 (inactive) | 4.21 µM |
| COc1cc(SC)ccc1C(=O)NCCOc1ccc(Cl)cc1 | 1.36 (inactive) | 7.36 µM |
| CCOC(=O)c1cnn(-c2ccccn2)c1N | 0.92 (inactive) | 4.94 µM |
| CC(=O)OCC(=O)[C@@]1(O)[C@H](C)C[C@H]2[C@@H]3CCC4=CC(=O)C=C[C@]4(C)[C@@]3(F)[C@@H](O)C[C@@]21C | 1 (inactive) | 5.42 µM |
| CCOc1ccc(-c2nc(C#N)c(N3CCCCCC3)o2)cc1 | 0.56 (inactive) | 3.04 µM |
| O=C(NC(=S)Nc1ccccc1N1CCCCC1)c1ccc(-c2cccc([N+](=O)[O-])c2)o1 | 1.3 (inactive) | 7.02 µM |
| Cc1nnc2sc(-c3ccncc3)nn12 | 0.8 (inactive) | 4.31 µM |
| Oc1c(C(c2ccccc2)N2CCc3ccccc3C2)sc2ncnn12 (configuration not stated) | 0.45 (inactive) | 2.42 µM |
| CC(C)(C)NC(=O)c1cccc(NC(=O)Cc2ccc(Br)cc2)c1 | 0.97 (inactive) | 5.23 µM |
| CCCOc1ccc(C(=O)Nc2ccc(N3CCN(C(C)=O)CC3)cc2)cc1 | 1.06 (inactive) | 5.75 µM |
| O=C(CCCCl)NC1=NN(c2ccccc2)C(=O)C1 | 1.56 | 8.43 µM |
| COc1ccc(C2CC(c3ccc(Cl)cc3)n3nc(N)nc3N2)cc1 (configuration not stated) | 0.65 (inactive) | 3.52 µM |
| CCOc1ccc(NC(=O)N2CCC(n3c(=O)[nH]c4ccccc43)CC2)cc1 | 0.9 (inactive) | 4.85 µM |

| SMILES | fold increase in Dox EC50 | EC50 |
| --- | --- | --- |
| Cc1onc(-c2c(F)cccc2Cl)c1C(=O)Nc1sc2c(c1C#N)CCC(C(C)(C)C)C2 (configuration not stated) | 0.48 (inactive) | 2.61 µM |
| c1ccc2c(c1)Nc1nccnc1S2 | 0.12 (inactive) | 0.637 µM |
| CCc1nn2c(N)c(/C=C3\C=Nc4ccccc43)c(=O)nc2s1 | 1.43 (inactive) | 7.74 µM |
| CCC(=O)N1CCN=C1SCc1ccccc1 | 0.74 (inactive) | 3.98 µM |
| CCOC(=O)c1csc(NC(=O)c2ccccc2)n1 | 0.86 (inactive) | 4.65 µM |
| COc1cccc(/C=N/NC(=O)CNC(=O)c2ccc3c(c2)OCCO3)c1O | 0.5 (inactive) | 2.71 µM |
| Cc1ccc(S(=O)(=O)N2CCC(C(=O)N[C@@H](C)C(=O)NC3CCCCC3)CC2)cc1 | 0.88 (inactive) | 4.73 µM |
| COC(=O)N/N=C/c1ccc(-c2ccc(C)c(Cl)c2)o1 | 0.63 (inactive) | 3.41 µM |
| COCCOC(=O)c1c(C)oc2ccc(OCC=C(C)C)cc12 | 0.5 (inactive) | 2.69 µM |
| CC(=O)N1CCN=C1SCc1ccccc1F | 0.78 (inactive) | 4.2 µM |
| Cc1cc2nc(/N=C(\N)NC(=O)N3c4ccccc4Sc4ccccc43)nc(C)c2cc1C | 1.69 | 9.15 µM |
| O=C1c2ccsc2SCCN1Cc1c(Cl)cccc1Cl | 1.19 (inactive) | 6.43 µM |
| COc1ccccc1NS(=O)(=O)c1cc(NC(=O)/C=C/c2cccs2)ccc1N1CCOCC1 | 0.81 (inactive) | 4.36 µM |
| CN(Cc1ccccc1)c1oc(COc2ccccc2F)nc1C#N | 0.66 (inactive) | 3.56 µM |
| CC(NC(=O)CN1CCN(Cc2ccc(Cl)cc2)C1=O)c1ccc2c(c1)OCCO2 (configuration not stated) | 0.87 (inactive) | 4.67 µM |
